Measured values: patent US20100256145A1, “USE OF KCNQ POTASSIUM CHANNEL OPENERS FOR REDUCING SYMPTOMS OF OR TREATING DISORDERS OR CONDITIONS WHEREIN THE DOPAMINERGIC SYSTEM IS DISRUPTED” (H. LUNDBECK A/S, priority 2007, published 2010)

Test system: sensitised amphetamine response (hyperactivity) in mice
Test: Sensitised behavioural response to amphetamine in mice
Format: in vivo
Conditions: Mus musculus; amphetamine-pretreated mice; s.c. 30 min before D-amphetamine 1.25 mg/kg challenge; Std. Dev. in brackets; read-out: Inhibition of the sensitised amphetamine response, ED50
Experimental: Subjects. Male NMRI mice (Charles River) weighing approx. 35 g are used. […] 12 mice are used pr experimental group.
Experimental procedure. […] For the 17 days between the last day of pre-treatment and the test day, the animals are kept in their homecage receiving the care as described above. The experiment is performed under normal light conditions in an undisturbed room. The mice are treated with test substance or vehicle and placed individually in the test cages for 30 min. […] 5×8 infrared light sources and photocells interspaced by 4 cm monitor the locomotor activity. The light beams cross the cage 1.8 cm above the bottom of the cage.
Administration of compounds.
Data analyses. The total counts obtained in the 30 min test are averaged pr animal group and used for calculation of drug effects in the following manner: The average motility induced by an amphetamine challenge in amphetamine-pretreated animals is used as the sensitised response. The average motility induced by a vehicle challenge to vehicle-pretreated animals is used as a baseline motility response. […] Similarly an ED50 for inhibiting baseline motility is calculated by expressed the motility response in vehicle-pretreated, vehicle-challenged, drug-treated animals relative to the baseline motility response. A therapeutic index value is subsequently calculated by dividing the first ED50 by the second.

Question: For Cc1nc(N2CCOCC2)nc(C)c1NC(=O)Cc1ccc(F)cc1 [N-(4,6-Dimethyl-2-morpholin-4-yl-pyrimidin-5-yl)-2-(4-fluoro-phenyl)-acetamide], which ED50 is on record?
Answer: Its ED50 is 0.4 mg/kg.
